{
  "source": "patent EP4160208A1",
  "about": "“URINE SEDIMENT STAINING LIQUID” (TOYOBO CO., LTD., priority 2020, dated 2021)",
  "origin": "cited, not measured here",
  "data": [
    {"values": [
      {"smiles": "O=S(=O)(O)CCNC(CO)(CO)CO", "note": "[TES]", "pKa": 7.50},
      {"smiles": "NC(=O)CN(CC(=O)O)CC(=O)O", "note": "[ADA]", "pKa": 6.80},
      {"smiles": "O=S(=O)(O)CCN1CCN(CCO)CC1", "note": "[HEPES]", "pKa": 7.55},
      {"smiles": "O=C(O)CNC(CO)(CO)CO", "note": "[Tricine]", "pKa": 8.15},
      {"smiles": "O=S(=O)(O)CCN(CCO)CCO", "note": "[BES]", "pKa": 7.15}
    ]}
  ]
}
